The values below come from publication PMC7656302 (Cancers, 2020).

The nature of one data set: clinical. To be noted: human, in vivo. Here is the method: Concentration-time curve and PK parameters were analyzed for each compound. Maximal concentrations (Cmax) and the time to reach the Cmax (Tmax) were graphically identified and the AUC was calculated with a non-compartmental method.
A further data set deals with HIF-1α. To be noted: colon cancers, oxygen concentrations from 5 to 1%; cited from earlier work.

The term Tmax denotes the time from dosing to the highest level. For orientation: AUC means the area under the concentration-time curve, a measure of exposure. A lower AUC goes with less exposure. `CO[C@H]1C[C@@H]2CC[C@@H](C)[C@@](O)(O2)C(=O)C(=O)N2CCCC[C@H]2C(=O)O[C@H]([C@H](C)C[C@@H]2CC[C@@H](O)[C@H](OC)C2)CC(=O)[C@H](C)/C=C(\C)[C@@H](O)[C@@H](OC)C(=O)[C@H](C)C[C@H](C)/C=C/C=C/C=C/1C` [rapamycin]: the concentration at 8 day in “clinical” (D8 rapamycin concentrations) turned out to be 6.75 ng/mL. Also, the Tmax in “clinical” (Rapamycin D1 Tmax) came to 3.5 h. The same compound had an area under the curve (AUC) in “clinical” (mean AUC of D8 rapamycin) of 176 ng·h/mL.

Regarding `CCc1c2c(nc3ccc(OC(=O)N4CCC(N5CCCCC5)CC4)cc13)-c1cc3c(c(=O)n1C2)COC(=O)[C@]3(O)CC` [irinotecan], the Tmax in “clinical” (Irinotecan D1 Tmax) stood at 1.67 h. The values for the area under the curve (AUC) in “clinical” (irinotecan mean AUC), in the data set “clinical” (mean AUC of irinotecan) and in “clinical” (mean irinotecan AUCs) were 6740 ng·h/mL, 6870 ng·h/mL and 5970 ng·h/mL, respectively. In addition, in the data set with HIF-1α, the “inhibition of HIF-1α” value is on record as “high inhibition of HIF-1α”.
